Source: ChEMBL document CHEMBL5550149, “Synthesis and evaluation of catecholamine derivatives as amyloid-beta aggregation inhibitors” (Bioorg Med Chem Lett, 2024)
≈ marks a conversion by molar mass, not a printed value. Calls of active or inactive are those of the source. No cut-off for these calls is given here.

What was measured:
[1] = biological target: Amyloid-beta precursor protein (Homo sapiens) (UniProt P05067); test: Inhibition of amyloid beta (unknown origin) aggregation at 10 uM incubated for 20 hrs by Tht-based fluorescence spectroscopy assay relative to control
[2] = Aqueous solubility of compound by shake flask method; assay type: physicochemical; conditions: water
[3] = Cytotoxicity against rat PC12 cells measured for 24 hrs by WST-assay; assay type: toxicity, cell-based, PC-12
[4] = biological target: Amyloid-beta precursor protein (Homo sapiens) (UniProt P05067); test: Inhibition of amyloid beta (unknown origin) aggregation at 1 uM incubated for 20 hrs by Tht-based fluorescence spectroscopy assay relative to control
[5] = biological target: Amyloid-beta precursor protein (Homo sapiens) (UniProt P05067); test: Inhibition of amyloid beta (unknown origin) aggregation assessed as change in aggregated monomers structure measured for 10 hrs by Tht-based fluorescence spectroscopy assay
[6] = biological target: Amyloid-beta precursor protein (Homo sapiens) (UniProt P05067); test: Inhibition of amyloid beta (unknown origin) aggregation assessed as reduction in rod like structure by […] analysis
[7] = biological target: Amyloid-beta precursor protein (Homo sapiens) (UniProt P05067); test: Inhibition of amyloid beta (unknown origin) aggregation assessed as reduction in beta-sheet formation by CD spectroscopy analysis
[8] = biological target: Amyloid-beta precursor protein (Homo sapiens) (UniProt P05067); test: Inhibition of amyloid beta (unknown origin) aggregation assessed as aggregate diameter by […] analysis

Chain of Amyloid-beta precursor protein (Homo sapiens) (P05067 whole entry): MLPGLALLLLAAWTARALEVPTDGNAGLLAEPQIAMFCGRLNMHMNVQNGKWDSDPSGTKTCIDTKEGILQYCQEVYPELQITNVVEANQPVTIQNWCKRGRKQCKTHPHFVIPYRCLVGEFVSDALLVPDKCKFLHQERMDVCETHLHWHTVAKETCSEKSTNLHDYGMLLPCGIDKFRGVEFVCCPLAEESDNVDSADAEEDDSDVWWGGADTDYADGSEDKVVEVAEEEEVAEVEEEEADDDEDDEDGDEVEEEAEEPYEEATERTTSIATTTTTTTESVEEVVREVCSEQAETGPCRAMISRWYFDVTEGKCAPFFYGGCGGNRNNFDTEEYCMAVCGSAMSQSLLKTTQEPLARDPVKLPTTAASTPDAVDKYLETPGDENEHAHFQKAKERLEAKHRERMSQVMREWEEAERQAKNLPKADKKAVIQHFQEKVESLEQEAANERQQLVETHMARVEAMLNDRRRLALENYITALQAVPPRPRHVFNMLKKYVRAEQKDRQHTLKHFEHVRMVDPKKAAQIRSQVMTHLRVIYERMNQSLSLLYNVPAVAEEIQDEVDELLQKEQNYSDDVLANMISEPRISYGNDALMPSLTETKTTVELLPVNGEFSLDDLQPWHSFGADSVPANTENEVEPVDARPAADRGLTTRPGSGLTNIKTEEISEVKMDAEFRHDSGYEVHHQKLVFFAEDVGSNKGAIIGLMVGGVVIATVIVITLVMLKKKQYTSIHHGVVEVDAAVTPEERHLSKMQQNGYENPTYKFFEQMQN

| inhibition [1] [%] | solubility thermodynamic [2] [µM] | inhibition [4] [%] | inhibition [5] | inhibition [6] | inhibition [7] | Activity [8] [nm] | Structure (SMILES) | CC50 at 24 h [3] [µM] |
| --- | --- | --- | --- | --- | --- | --- | --- | --- |
| 86 | 1410 (≈ 507 µg/mL) | – | – | – | – | – | O=C(/C=C/c1ccc(O)c(O)c1)N[C@@H](Cc1ccc(O)c(O)c1)C(=O)O | > 150 |
| 80 | 1300 (≈ 415 µg/mL) | 0 | – | – | – | – | O=C(N[C@H](CO)Cc1ccc(O)c(O)c1)c1cccc(O)c1O | > 150 |
| 30 | 1300 (≈ 353 µg/mL) | 0 | – | – | – | – | O=C(Cc1ccccc1)NCCc1ccc(O)c(O)c1 | > 150 |
| 90 | 1200 (≈ 383 µg/mL) | 35 | – | – | – | – | O=C(N[C@H](CO)Cc1ccc(O)c(O)c1)c1ccc(O)c(O)c1 | > 150 |
| 85 | 3000 (≈ 1010 µg/mL) | 16 | – | – | – | – | O=C(N[C@H](CO)Cc1ccc(O)c(O)c1)c1cc(O)c(O)c(O)c1 | 80 |
| 95 | 377 (≈ 137 µg/mL) | 30 | – | – | – | – | COC(=O)[C@H](Cc1ccc(O)c(O)c1)NC(=O)c1cc(O)c(O)c(O)c1 | 150 |
| 20 | 1600 (≈ 485 µg/mL) | 0 | – | – | – | – | O=C(N[C@H](CO)Cc1ccc(O)c(O)c1)c1ccc(O)cc1 | > 150 |
| 22 | 1500 (≈ 479 µg/mL) | 0 | – | – | – | – | O=C(N[C@H](CO)Cc1ccc(O)c(O)c1)c1cc(O)cc(O)c1 | > 150 |
| 25 | 1800 (≈ 546 µg/mL) | 0 | – | – | – | – | O=C(Cc1cc(O)cc(O)c1)NCCc1ccc(O)c(O)c1 | > 150 |
| 80 | 800 (≈ 243 µg/mL) | 19 | – | – | – | – | O=C(Cc1cc(O)ccc1O)NCCc1ccc(O)c(O)c1 | > 150 |
| 70 | 2000 (≈ 607 µg/mL) | 0 | – | – | – | – | O=C(Cc1cccc(O)c1O)NCCc1ccc(O)c(O)c1 | > 150 |
| 100 | 1500 (≈ 473 µg/mL) | 55 | Active | Active | inactive | 74 | O=C(/C=C/c1ccc(O)c(O)c1)NCCc1ccc(O)c(O)c1 | > 150 |
| 80 | 2000 (≈ 575 µg/mL) | 18 | – | – | – | – | O=C(Cc1ccc(O)cc1)NCCc1ccc(O)c(O)c1 | > 150 |
| 92 | 2500 (≈ 758 µg/mL) | 29 | – | – | – | – | O=C(Cc1ccc(O)c(O)c1)NCCc1ccc(O)c(O)c1 | > 150 |
| 70 | 2500 (≈ 798 µg/mL) | 28 | – | – | – | – | O=C(N[C@H](CO)Cc1ccc(O)c(O)c1)c1cc(O)ccc1O | > 150 |
| 92 | 750 (≈ 212 µg/mL) | 40 | – | – | – | – | O=C(/C=C/c1ccccc1)NCCc1ccc(O)c(O)c1 | > 150 |
| – | 2340 (≈ 735 µg/mL) | 76 | – | – | – | – | O=C1C=C(c2ccc(O)c(O)c2)OC(c2cc(O)ccc2O)C1 (centres undefined) | – |
| 31 | – | 0 | – | – | – | – | N[C@@H](Cc1ccc(O)c(O)c1)C(=O)O | – |
| 70 | 700 (≈ 201 µg/mL) | 0 | – | – | – | – | O=C(N[C@H](CO)Cc1ccc(O)c(O)c1)c1ccccc1 | > 150 |
| 90 | 3200 (≈ 1020 µg/mL) | 20 | – | – | – | – | O=C(Cc1cc(O)c(O)c(O)c1)NCCc1ccc(O)c(O)c1 | 80 |
